Reference: patent US11352315B2, “Compositions and methods comprising a triaryl polyamine” (Curza Global, LLC, priority 2017, dated 2022)
Values after ≈ are worked out from the molar mass of the structure shown.

Assays:
MRSA [1] = experiment: MIC analysis; format: cell-based; conditions: Staphylococcus aureus, 24 hours
Method: (§1) A clinical strain of MRSA, isolated from a patient who underwent arthroscopic knee surgery and characterized by ARUP Laboratories, Salt Lake City, Utah, was used for this study in addition to Pseudomonas aeruginosa ATCC 27853 and Alcanivorax borkumensis ATCC 700651. P. aeruginosa was resuspended in BHI broth, grown overnight at 37° C. and transferred to fresh BHI with 30% glycerol for storage at −80° C. The MRSA isolate was likewise stored in BHI with 30% glycerol at −80° C. […] Before performing MIC analysis and biofilm experiments, the frozen stocks of MRSA and P. aeruginosa were streaked onto Columbia blood agar plates and grown overnight at 37° C. A. borkumensis ATCC 700651 was resuspended from a lyophilized pellet into marine broth, grown overnight at 30° C. and passaged on marine agar plates prior to experimentation.
(§2) To determine the MIC of polyamine compounds, the protocol described herein was used.
(§3) In brief, a 0.5 McFarland of each bacterial isolate was made. A 0.5 McFarland is a measure of turbidity in a liquid sample that contains approximately 1×10^^8 CFU/mL. The 0.5 McFarland standard was diluted in cation adjusted Mueller Hinton Broth (CAMHB), and 50 μL of broth were added to a well of a 96-well plate. In addition, 50 μL of CAMHB that contained a desired concentration of antimicrobial were also added to the well for a final volume of 100 μL and a final concentration of approximately 5×10^4 CFU/well (which equated to approximately 5×10^5 CFU/mL). Each well contained a desired amount of polyamine compound in order to experimentally determine the MIC. Each 96-well plate was incubated at 37° C. for 24 hours. The contents of each well were plated on tryptic soy agar (TSA). TSA plates were incubated for 37° C. for 24 hours after which the number of CFU were counted and used to calculate the CFU/mL that remained after exposure to varying concentrations of compound. This procedure was repeated n=8 times for each concentration of antimicrobial.

P. aeruginosa [2] = experiment: MIC analysis; format: cell-based; conditions: Pseudomonas aeruginosa, 24 hours
Method: as §1, §2, §3

MRSA [3] = experiment: MBEC analysis, MBEC Inoculation Tray (column headed MBC); format: cell-based; conditions: Staphylococcus aureus, 24 hours
Text: (§4) To determine the MBEC of each polyamine compound, the MBEC Inoculation Tray by Innovotech, formerly known as the Calgary biofilm device, was used. Within this device, biofilms grow on the surface of polystyrene pegs, 96 of which are attached to a lid. These pegs are inserted into a flat bottom 96-well plate. In this instance, the MBEC of a molecule was defined as the concentration of compound (in μg/mL) required to reduce 10^5 or 10^6 CFU/peg (biofilm levels varied by isolate) to 10^2 CFU/peg in a 24-hour period.
(§5) Following the manufacturer's guidelines, biofilms were grown on the surface of each peg by first making a 0.5 McFarland of each isolate. The 0.5 McFarland was diluted 1:100 in CAMHB. Into each well of a flat bottom 96-well plate, 150 μL of broth were pipetted. The plate was shaken at 100 rpm for 24 hours (P. aeruginosa and A. baumannii) or 48 hours (MRSA). The pegs were then placed into a separate flat bottom 96-well plate for 10 seconds with 200 μL of phosphate buffered saline (PBS) in each well to remove nonadherent cells. The lid was then placed into a 96-well plate that contained varying concentrations of antimicrobial with 200 μL per well. The plate was incubated for 24 hours at 37° C. after which time 100 μL of broth were plated on TSA. TSA plates were incubated 24 hours at 37° C. and the number of CFU counted to calculate the CFU/peg. In this instance, the MBEC was defined as the concentration of antimicrobial required to reduce 10^5 or 10^6 CFU/peg to 10^2 CFU/peg in a 24 hour period.

P. aeruginosa [4] = experiment: as above; format: cell-based; conditions: Pseudomonas aeruginosa, 24 hours
Text: as §4, §5

A. baumannii [5] = experiment: EBEC analysis, high number biofilms on PEEK membranes; format: cell-based, Acinetobacter baumannii; conditions: 24 hours
Method: (§6) To determine the efficacy of polyamine compounds against high number biofilms, biofilms were grown on the surface of polyetheretherketone (PEEK) membranes using a membrane biofilm reactor. This reactor was similar to the CDC biofilm reactor, but rather than growing biofilms on coupon surfaces, the reactor was modified to hold PEEK membranes. In short, to grow biofilms within this system, 500 mL of brain heart infusion (BHI) broth were inoculated with 1 mL of a 0.5 McFarland. The reactor was placed on a hot plate set at 34° C. and the bacteria were grown under batch conditions for 24 hours.
(§7) A solution of 10% BHI was then flowed through the reactor at a rate of 6.94 mL/min for an additional 24 hours. PEEK membranes were then removed and placed into 2 mL of CAMHB that contained a desired concentration of polyamine compound or antibiotic. The EBEC was defined as the concentration of antimicrobial required to reduce a biofilm from approximately 10^9 CFU/PEEK membrane to approximately 10^2 CFU/PEEK membrane in a 24-hour period.

A. baumannii [6] = experiment: MIC analysis; format: cell-based; conditions: Acinetobacter baumannii, 24 hours
Method: as §2, §3

MRSA [7] = experiment: EBEC analysis, high number biofilms on PEEK membranes; format: cell-based, Staphylococcus aureus; conditions: 24 hours
Method: as §6, §7

A. baumannii [8] = experiment: MBEC analysis, MBEC Inoculation Tray (column headed MBC); format: cell-based; conditions: Acinetobacter baumannii, 24 hours
Text: as §4, §5

E. coli [9] = experiment: as above; format: cell-based; conditions: Escherichia coli, 24 hours
E. coli [10] = experiment: MIC analysis; format: cell-based; conditions: Escherichia coli, 24 hours
Method: as §2, §3

Compound | MIC (MRSA [1]) | MIC (P. aeruginosa [2]) | MBC (MRSA [3]) | MBC (P. aeruginosa [4]) | EBEC (A. baumannii [5]) | MIC (A. baumannii [6]) | EBEC (MRSA [7]) | MBC (A. baumannii [8]) | MBC (E. coli [9]) | MIC (E. coli [10])
CC(C)CCNCCCNCCCNCc1ccc(-c2ccnc(-c3ccc(CNCCCNCCCNCCC(C)C)cc3)n2)cc1 [CZ-1-174, N^1,N^1′-((pyrimidine-2,4-diylbis(4,1-phenylene))bis(methylene))bis(N^3-(3-(isopentylamino)propyl)propane-1,3-diamine)] | 8 mg/L (≈ 12.1 µM) | 64 mg/L (≈ 97.1 µM) | 16 mg/L (≈ 24.3 µM) | > 64 mg/L | – | – | – | – | – | –
CCC(C)CNCCCNCCCNCc1ccc(-c2cc(-c3ccc(CNCCCNCCCNCC(C)CC)cc3)cc(C(C)(C)C)c2)cc1 (stereo not drawn) [CZ-1-178, N^1,N^1′-((5′-(tert-butyl)-[1,1′:3′,1″-terphenyl]-4,4″-diyl)bis(methylene))bis(N^3-(3-((2-methylbutyl)amino)propyl)propane-1,3-diamine)] | 1 mg/L (≈ 1.4 µM) | 1 mg/L (≈ 1.4 µM) | 1 mg/L (≈ 1.4 µM) | > 4 mg/L | 500 µg/mL | 2 mg/L (≈ 2.8 µM) | <250 µg/mL | 4 mg/L (≈ 5.61 µM) | – | –
CCCCC(CC)CNCCCNCCCNCc1ccc(-c2cccc(-c3ccc(CNCCCNCCCNCC(CC)CCCC)cc3)c2)cc1 (stereo not drawn) [CZ-1-161, N^1,N^1′-([1,1′:3′,1″-terphenyl]-4,4″-diylbis(methylene))bis(N^3-(3-((2-ethylhexyl)amino)propyl)propane-1,3-diamine)] | 1 mg/L (≈ 1.35 µM) | 16 mg/L (≈ 21.6 µM) | 2 mg/L (≈ 2.7 µM) | 16 mg/L (≈ 21.6 µM) | – | 4 mg/L (≈ 5.4 µM) | – | 4 mg/L (≈ 5.4 µM) | 1 mg/L (≈ 1.35 µM) | 1 mg/L (≈ 1.35 µM)
CCC(CC)CNCCCNCCCNCc1ccc(-c2cccc(-c3ccc(CNCCCNCCCNCC(CC)CC)cc3)c2)cc1 [CZ-1-164, N^1,N^1′-([1,1′:3′,1″-terphenyl]-4,4″-diylbis(methylene))bis(N^3-(3-((2-ethylbutyl)amino)propyl)propane-1,3-diamine)] | 1 mg/L (≈ 1.46 µM) | 16 mg/L (≈ 23.4 µM) | 1 mg/L (≈ 1.46 µM) | 16 mg/L (≈ 23.4 µM) | – | – | – | – | – | –
CC(C)CNCCCNCCCNCc1cccc(-c2cc(-c3cccc(CNCCCNCCCNCC(C)C)c3)cc(C(C)(C)C)c2)c1 [CZ-1-184, N^1,N^1′-((5′-(tert-butyl)-[1,1′:3′,1″-terphenyl]-3,3″-diyl)bis(methylene))bis(N^3-(3-(isobutylamino)propyl)propane-1,3-diamine)] | 0.5 mg/L (≈ 0.73 µM) | 16 mg/L (≈ 23.4 µM) | – | – | – | 64 mg/L (≈ 93.4 µM) | – | – | – | –
CC(C)CNCCCNCCCNCc1cccc(-c2ccccc2-c2cccc(CNCCCNCCCNCC(C)C)c2)c1 [CZ-1-152] | 16 mg/L (≈ 25.4 µM) | 32 mg/L (≈ 50.9 µM) | 16 mg/L (≈ 25.4 µM) | 32 mg/L (≈ 50.9 µM) | – | – | – | – | – | –
CC(C)CNCCCNCCCNCc1ccc(-c2cc(-c3ccc(CNCCCNCCCNCC(C)C)cc3)cc(C(C)(C)C)c2)cc1 [CZ-1-177, N^1,N^1′-((5′-(tert-butyl)-[1,1′:3′,1″-terphenyl]-4,4″-diyl)bis(methylene))bis(N^3-(3-(isobutylamino)propyl)propane-1,3-diamine)] | 1 mg/L (≈ 1.46 µM) | 1 mg/L (≈ 1.46 µM) | 1 mg/L (≈ 1.46 µM) | > 4 mg/L | 500 µg/mL | 8 mg/L (≈ 11.7 µM) | 250 µg/mL | 16 mg/L (≈ 23.4 µM) | – | –
CC(C)CNCCCNCCCNCc1ccc(-c2ccccc2-c2ccc(CNCCCNCCCNCC(C)C)cc2)cc1 [CZ-1-154, N^1,N^1′-([1,1′:2′,1″-terphenyl]-4,4″-diylbis(methylene))bis(N^3-(3-(isobutylamino)propyl)propane-1,3-diamine)] | 4 mg/L (≈ 6.36 µM) | 32 mg/L (≈ 50.9 µM) | 4 mg/L (≈ 6.36 µM) | > 32 mg/L | – | – | – | – | 16 mg/L (≈ 25.4 µM) | 16 mg/L (≈ 25.4 µM)
CCC(C)CNCCCNCCCNCc1ccc(-c2cccc(-c3ccc(CNCCCNCCCNCC(C)CC)cc3)c2)cc1 (stereo not drawn) [CZ-1-166, N^1,N^1′-([1,1′:3′,1″-terphenyl]-4,4″-diylbis(methylene))bis(N^3-(3-((2-methylbutyl)amino)propyl)propane-1,3-diamine)] | 1 mg/L (≈ 1.52 µM) | 4 mg/L (≈ 6.09 µM) | 1 mg/L (≈ 1.52 µM) | 8 mg/L (≈ 12.2 µM) | – | – | – | – | – | –
CC(C)CNCCCNCCCNCc1ccc(-c2cc(-c3ccc(CNCCCNCCCNCC(C)C)cc3)ncn2)cc1 [CZ-1-176, N^1,N^1′-((pyrimidine-4,6-diylbis(4,1-phenylene))bis(methylene))bis(N^3-(3-(isobutylamino)propyl)propane-1,3-diamine)] | 32 mg/L (≈ 50.7 µM) | 64 mg/L (≈ 101 µM) | 32 mg/L (≈ 50.7 µM) | 64 mg/L (≈ 101 µM) | – | – | – | – | – | –
CC(C)CNCCCNCCCNCc1ccc(-c2cccc(-c3ccc(CNCCCNCCCNCC(C)C)cc3)c2)cc1 [CZ-1-157, N^1,N^1′-([1,1′:3′,1″-terphenyl]-4,4″-diylbis(methylene))bis(N^3-(3-(isobutylamino)propyl)propane-1,3-diamine)] | 4 mg/L (≈ 6.36 µM) | 16 mg/L (≈ 25.4 µM) | 4 mg/L (≈ 6.36 µM) | 16 mg/L (≈ 25.4 µM) | – | – | >750 µg/mL | – | – | –
CCC(CC)CNCCCNCCCNCc1cccc(-c2cc(-c3cccc(CNCCCNCCCNCC(CC)CC)c3)cc(C(C)(C)C)c2)c1 [CZ-1-183, N^1,N^1′-((5′-(tert-butyl)-[1,1′:3′,1″-terphenyl]-3,3″-diyl)bis(methylene))bis(N^3-(3-((2-ethylbutyl)amino)propyl)propane-1,3-diamine)] | 0.5 mg/L (≈ 0.675 µM) | 8 mg/L (≈ 10.8 µM) | – | – | – | 16 mg/L (≈ 21.6 µM) | – | – | – | –
CC(C)CNCCCNCCCNCc1cccc(-c2ccc(-c3cccc(CNCCCNCCCNCC(C)C)c3)c(CNCCCNCCCNCC(C)C)c2)c1 [CZ-1-153, N^1,N^1′,N^1″-([1,1′:4′,1″-terphenyl]-2′,3,3″-triyltris(methylene))tris(N^3-(3-(isobutylamino)propyl)propane-1,3-diamine)] | 16 mg/L (≈ 19.3 µM) | > 64 mg/L | 16 mg/L (≈ 19.3 µM) | > 64 mg/L | – | – | – | – | – | –
CCCCCCNCCCNCCCNCc1cccc(-c2ccccc2-c2cccc(CNCCCNCCCNCCCCCC)c2)c1 [CZ-1-155, N^1,N^1′-([1,1′:2′,1″-terphenyl]-3,3″-diylbis(methylene))bis(N^3-(3-(hexylamino)propyl)propane-1,3-diamine)] | 16 mg/L (≈ 23.4 µM) | 16 mg/L (≈ 23.4 µM) | 16 mg/L (≈ 23.4 µM) | 16 mg/L (≈ 23.4 µM) | – | – | – | – | – | –
